Assay results published in the supplement of paper PMC10307832.

Key:
Assay in all cases: relative viability (nuclei count vs DMSO), 5 days (fraction); higher = more cells survive
EHT 1864 + Trametinib = compound: C1COCCN1CC2=CC(=O)C(=CO2)OCCCCCSC3=C4C=CC(=CC4=NC=C3)C(F)(F)F [EHT 1864] + CC(=O)Nc1cccc(-n2c(=O)n(C3CC3)c(=O)c3c(Nc4ccc(I)cc4F)n(C)c(=O)c(C)c32)c1 [Trametinib] (partner 0.02 µM)
Outline: (§1)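 Lung cancer cell lines, seeded in 1536-well plates, were treated the following day by pin tool with a single drug or with five library-drug doses (not always all listed) in √10 steps on top of a fixed anchor-drug dose. Cells were fixed and nuclei stained in one step after 5 days, and nuclei were counted. Relative viability is the nuclei count for treated wells divided by that for vehicle wells, reported as medians of duplicate plates.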

EHT 1864 + Phenformin = compound: C1COCCN1CC2=CC(=O)C(=CO2)OCCCCCSC3=C4C=CC(=CC4=NC=C3)C(F)(F)F [EHT 1864] + N=C(N)NC(=N)NCCc1ccccc1 [Phenformin] (partner 250 µM)
Outline: as §1

EHT 1864 + Navitoclax = compound: C1COCCN1CC2=CC(=O)C(=CO2)OCCCCCSC3=C4C=CC(=CC4=NC=C3)C(F)(F)F [EHT 1864] + CC1(C)CCC(c2ccc(Cl)cc2)=C(CN2CCN(c3ccc(C(=O)NS(=O)(=O)c4ccc(N[C@H](CCN5CCOCC5)CSc5ccccc5)c(S(=O)(=O)C(F)(F)F)c4)cc3)CC2)C1 [Navitoclax] (partner 0.5 µM)
Outline: as §1

EHT 1864 + Pemetrexed = compound: C1COCCN1CC2=CC(=O)C(=CO2)OCCCCCSC3=C4C=CC(=CC4=NC=C3)C(F)(F)F [EHT 1864] + Nc1nc2[nH]cc(CCc3ccc(C(=O)N[C@@H](CCC(=O)O)C(=O)O)cc3)c2c(=O)[nH]1 [Pemetrexed] (partner 0.2 µM)
Outline: as §1

Row | Cell Line | relative viability (EHT 1864 + Trametinib; first compound 0.04 µM) | relative viability (EHT 1864 + Trametinib; first compound 0.1265 µM) | relative viability (EHT 1864 + Trametinib; first compound 0.4 µM) | relative viability (EHT 1864 + Trametinib; first compound 1.265 µM) | relative viability (EHT 1864 + Trametinib; first compound 4 µM) | relative viability (EHT 1864 + Phenformin; first compound 0.04 µM) | relative viability (EHT 1864 + Phenformin; first compound 0.1265 µM) | relative viability (EHT 1864 + Phenformin; first compound 0.4 µM) | relative viability (EHT 1864 + Phenformin; first compound 1.265 µM) | relative viability (EHT 1864 + Phenformin; first compound 4 µM) | relative viability (EHT 1864 + Navitoclax; first compound 0.04 µM) | relative viability (EHT 1864 + Navitoclax; first compound 0.1265 µM) | relative viability (EHT 1864 + Navitoclax; first compound 0.4 µM) | relative viability (EHT 1864 + Navitoclax; first compound 1.265 µM) | relative viability (EHT 1864 + Navitoclax; first compound 4 µM) | relative viability (EHT 1864 + Pemetrexed; first compound 0.04 µM) | relative viability (EHT 1864 + Pemetrexed; first compound 0.1265 µM) | relative viability (EHT 1864 + Pemetrexed; first compound 0.4 µM) | relative viability (EHT 1864 + Pemetrexed; first compound 1.265 µM) | relative viability (EHT 1864 + Pemetrexed; first compound 4 µM)
1 | PC-3 [JPC-3] | 0.641 | 0.649 | 0.763 | 0.727 | 0.695 | 0.507 | 0.439 | 0.451 | 0.478 | 0.51 | 0.788 | 0.72 | 0.849 | 0.844 | 0.805 | 1.07 | 0.944 | 1.1 | 1.09 | 1.03
2 | NCI-H1993 | 0.579 |  | 0.5 | 0.485 | 0.543 | 0.537 |  | 0.488 | 0.534 | 0.508 | 0.84 | 0.697 | 0.866 | 1.08 | 0.849 | 0.58 |  | 0.595 | 0.623 | 0.556
3 | SK-MES-1 | 0.539 | 0.498 | 0.518 | 0.537 | 0.518 | 0.726 | 0.67 | 0.605 | 0.577 | 0.602 | 1.3 | 1.13 | 1.29 | 1.31 | 1.17 | 0.93 | 0.852 | 0.857 | 0.882 | 0.85
4 | NCI-H1915 | 0.295 |  | 0.283 | 0.28 | 0.286 | 0.396 |  | 0.366 | 0.382 | 0.374 | 0.797 |  | 0.764 | 0.768 | 0.792 | 0.474 |  | 0.52 | 0.5 | 0.477
5 | RERF-LC-KJ | 0.896 | 0.868 | 0.866 | 0.826 | 0.832 | 0.381 | 0.428 | 0.453 | 0.393 | 0.404 | 0.985 | 0.829 | 0.823 | 0.931 | 0.888 | 0.46 | 0.443 | 0.484 | 0.462 | 0.504
6 | LOU-NH91 | 0.757 | 0.747 | 0.802 | 0.761 | 0.74 | 0.783 | 0.635 | 0.859 | 0.738 | 0.66 | 0.693 | 0.652 | 0.789 | 0.694 | 0.567 | 0.347 | 0.382 | 0.396 | 0.421 | 0.391
7 | NCI-H2347 | 0.222 | 0.281 | 0.251 | 0.276 | 0.463 | 0.585 | 0.432 | 0.478 |  | 0.46 | 0.77 | 0.708 | 0.812 | 0.714 | 0.828 | 0.402 | 0.403 | 0.459 | 0.465 | 0.419
8 | NCI-H2126 | 0.614 | 0.568 | 0.545 | 0.503 | 0.548 | 0.557 | 0.515 | 0.571 | 0.543 | 0.567 | 0.92 | 0.76 | 0.823 | 0.853 | 0.814 | 0.707 | 0.603 | 0.661 | 0.726 | 0.633
9 | HCC-827 | 0.618 | 0.611 | 0.597 | 0.555 | 0.548 | 0.407 | 0.347 | 0.396 | 0.432 | 0.329 | 1.1 | 0.844 | 0.96 | 1.02 | 0.944 | 0.279 | 0.27 | 0.227 | 0.3 | 0.235
10 | NCI-H3122 | 0.219 | 0.288 | 0.248 | 0.202 | 0.219 | 0.415 | 0.373 | 0.362 | 0.345 | 0.304 | 1.06 | 1.01 | 0.987 | 1.06 | 0.987 | 0.189 | 0.179 | 0.206 | 0.202 | 0.185
11 | HOP-62 | 0.4 |  | 0.362 | 0.38 | 0.415 | 0.665 |  | 0.615 | 0.654 | 0.718 | 0.915 |  | 1.02 | 0.977 | 1.22 | 0.438 |  | 0.269 | 0.388 | 0.314
12 | HCC-44 | 1.08 | 0.977 | 0.961 | 0.967 | 1.11 | 0.193 | 0.13 | 0.203 | 0.218 | 0.221 | 1.02 | 0.951 | 0.905 | 0.904 | 1.08 | 0.603 | 0.594 | 0.618 | 0.674 | 0.674
